What all share (assay): relative viability (nuclei count vs DMSO), 5 days (fraction); higher = more cells survive
Compound in the assay “Gemcitabine + Alpelisib”: Nc1ccn([C@@H]2O[C@H](CO)[C@@H](O)C2(F)F)c(=O)n1 [Gemcitabine] + Cc1nc(NC(=O)N2CCC[C@H]2C(N)=O)sc1-c1ccnc(C(C)(C)C(F)(F)F)c1 [Alpelisib] (partner 2 µM)
In a few lines:
(§1)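 Lung cancer cell lines were seeded in 1536-well plates and dosed by pin tool the next day, with either a single drug or a fixed anchor-drug dose combined with five library-drug doses (not always all listed) spaced in √10 steps. Five days later, one step fixed the cells and stained their nuclei (final 0.05% Triton X-100, 1% formaldehyde, 1 ug/ml Hoechst), and nuclei were counted on 4× images. Relative viability is the nuclei count in treated wells divided by the count in vehicle wells, and each value is the median of duplicate plates.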

Compound in the assay “Gemcitabine + Pemetrexed”: Nc1ccn([C@@H]2O[C@H](CO)[C@@H](O)C2(F)F)c(=O)n1 [Gemcitabine] + Nc1nc2[nH]cc(CCc3ccc(C(=O)N[C@@H](CCC(=O)O)C(=O)O)cc3)c2c(=O)[nH]1 [Pemetrexed] (partner 0.2 µM)
Put shortly:
as §1

Compound in the assay “Gemcitabine + Foretinib”: Nc1ccn([C@@H]2O[C@H](CO)[C@@H](O)C2(F)F)c(=O)n1 [Gemcitabine] + COc1cc2c(Oc3ccc(NC(=O)C4(C(=O)Nc5ccc(F)cc5)CC4)cc3F)ccnc2cc1OCCCN1CCOCC1 [Foretinib] (partner 0.25 µM)
Put shortly:
as §1

Compound in the assay “Gemcitabine + Olaparib”: Nc1ccn([C@@H]2O[C@H](CO)[C@@H](O)C2(F)F)c(=O)n1 [Gemcitabine] + O=C(c1cc(Cc2n[nH]c(=O)c3ccccc23)ccc1F)N1CCN(C(=O)C2CC2)CC1 [Olaparib] (partner 8 µM)
In a few lines: as §1

In the case of NCI-H838, the relative viability with Gemcitabine + Alpelisib (first compound 0.001 µM) was 1.05; with Gemcitabine + Alpelisib (first compound 0.003162 µM) it was 1.17; in the assay with Gemcitabine + Alpelisib (first compound 0.01 µM), 1.14; in the assay with Gemcitabine + Alpelisib (first compound 0.03162 µM), 0.557; in the assay with Gemcitabine + Alpelisib (first compound 0.1 µM), 0.169; in the assay with Gemcitabine + Pemetrexed (first compound 0.001 µM) it was 0.251. The relative viability with Gemcitabine + Pemetrexed (first compound 0.003162 µM) was determined as 0.262; in the assay with Gemcitabine + Pemetrexed (first compound 0.01 µM) it was 0.24; with Gemcitabine + Pemetrexed (first compound 0.03162 µM), 0.241; with Gemcitabine + Pemetrexed (first compound 0.1 µM), 0.149; in the assay with Gemcitabine + Foretinib (first compound 0.001 µM), 1.12; with Gemcitabine + Foretinib (first compound 0.003162 µM), 1.26. Further, the relative viability with Gemcitabine + Foretinib (first compound 0.01 µM) amounted to 0.999; in the assay with Gemcitabine + Foretinib (first compound 0.03162 µM), 0.435; with Gemcitabine + Foretinib (first compound 0.1 µM) it was 0.17; in the assay with Gemcitabine + Olaparib (first compound 0.001 µM) it was 0.787; in the assay with Gemcitabine + Olaparib (first compound 0.003162 µM), 0.842; with Gemcitabine + Olaparib (first compound 0.01 µM), 0.534. In addition, the relative viability with Gemcitabine + Olaparib (first compound 0.03162 µM) is 0.282; with Gemcitabine + Olaparib (first compound 0.1 µM), 0.12.
Turning to NCI-H1437, the relative viability with Gemcitabine + Alpelisib (first compound 0.001 µM) was determined as 1.15; in the assay with Gemcitabine + Alpelisib (first compound 0.003162 µM), 0.873; in the assay with Gemcitabine + Alpelisib (first compound 0.01 µM), 0.373; with Gemcitabine + Alpelisib (first compound 0.03162 µM) it was 0.185; in the assay with Gemcitabine + Alpelisib (first compound 0.1 µM), 0.0956; with Gemcitabine + Pemetrexed (first compound 0.001 µM), 0.285. Also, the relative viability with Gemcitabine + Pemetrexed (first compound 0.003162 µM) came to 0.325; with Gemcitabine + Pemetrexed (first compound 0.01 µM), 0.27; with Gemcitabine + Pemetrexed (first compound 0.03162 µM), 0.276; in the assay with Gemcitabine + Pemetrexed (first compound 0.1 µM), 0.254; in the assay with Gemcitabine + Foretinib (first compound 0.001 µM), 1.28; in the assay with Gemcitabine + Foretinib (first compound 0.003162 µM), 1.14. The relative viability in the assay with Gemcitabine + Foretinib (first compound 0.01 µM) worked out at 0.867; with Gemcitabine + Foretinib (first compound 0.03162 µM), 0.442; with Gemcitabine + Foretinib (first compound 0.1 µM), 0.209; in the assay with Gemcitabine + Olaparib (first compound 0.001 µM), 0.622; in the assay with Gemcitabine + Olaparib (first compound 0.003162 µM) it was 0.781; in the assay with Gemcitabine + Olaparib (first compound 0.01 µM) it was 0.488. Further, the relative viability in the assay with Gemcitabine + Olaparib (first compound 0.03162 µM) stood at 0.325; in the assay with Gemcitabine + Olaparib (first compound 0.1 µM), 0.225.
Regarding NCI-H2170, the relative viability with Gemcitabine + Alpelisib (first compound 0.001 µM) was found to be 0.85; in the assay with Gemcitabine + Alpelisib (first compound 0.003162 µM), 0.767; in the assay with Gemcitabine + Alpelisib (first compound 0.01 µM) it was 0.412; in the assay with Gemcitabine + Alpelisib (first compound 0.03162 µM), 0.181; in the assay with Gemcitabine + Alpelisib (first compound 0.1 µM), 0.169; with Gemcitabine + Pemetrexed (first compound 0.001 µM), 0.289. For the same cell line, the relative viability stood at 0.259 in the assay with Gemcitabine + Pemetrexed (first compound 0.003162 µM); 0.314 with Gemcitabine + Pemetrexed (first compound 0.01 µM); 0.127 in the assay with Gemcitabine + Pemetrexed (first compound 0.03162 µM); 0.119 in the assay with Gemcitabine + Pemetrexed (first compound 0.1 µM); 1.02 in the assay with Gemcitabine + Foretinib (first compound 0.001 µM); 1.03 with Gemcitabine + Foretinib (first compound 0.003162 µM). In addition, the relative viability in the assay with Gemcitabine + Foretinib (first compound 0.01 µM) stood at 0.909; with Gemcitabine + Foretinib (first compound 0.03162 µM) it was 0.3; with Gemcitabine + Foretinib (first compound 0.1 µM) it was 0.518; with Gemcitabine + Olaparib (first compound 0.001 µM), 0.591; with Gemcitabine + Olaparib (first compound 0.003162 µM) it was 0.636; with Gemcitabine + Olaparib (first compound 0.01 µM) it was 0.258. For the same cell line, the relative viability was determined as 0.091 with Gemcitabine + Olaparib (first compound 0.03162 µM) and 0.104 with Gemcitabine + Olaparib (first compound 0.1 µM).
LCLC-103H: the relative viability was 1 in the assay with Gemcitabine + Alpelisib (first compound 0.001 µM); 0.878 in the assay with Gemcitabine + Alpelisib (first compound 0.003162 µM); 0.949 with Gemcitabine + Alpelisib (first compound 0.01 µM); 1 with Gemcitabine + Alpelisib (first compound 0.03162 µM); 0.272 in the assay with Gemcitabine + Alpelisib (first compound 0.1 µM); 0.423 with Gemcitabine + Pemetrexed (first compound 0.001 µM). Besides, the relative viability with Gemcitabine + Pemetrexed (first compound 0.003162 µM) was determined as 0.435; with Gemcitabine + Pemetrexed (first compound 0.01 µM), 0.44; in the assay with Gemcitabine + Pemetrexed (first compound 0.03162 µM), 0.407; with Gemcitabine + Pemetrexed (first compound 0.1 µM), 0.392; with Gemcitabine + Foretinib (first compound 0.001 µM), 0.78; with Gemcitabine + Foretinib (first compound 0.003162 µM), 0.853. Besides, the relative viability with Gemcitabine + Foretinib (first compound 0.01 µM) amounted to 0.663; in the assay with Gemcitabine + Foretinib (first compound 0.03162 µM), 0.348; with Gemcitabine + Foretinib (first compound 0.1 µM), 0.233; with Gemcitabine + Olaparib (first compound 0.001 µM) it was 0.771; in the assay with Gemcitabine + Olaparib (first compound 0.003162 µM) it was 0.758; in the assay with Gemcitabine + Olaparib (first compound 0.01 µM), 0.734. Also, the relative viability was 0.58 in the assay with Gemcitabine + Olaparib (first compound 0.03162 µM) and 0.367 with Gemcitabine + Olaparib (first compound 0.1 µM).
Consider NCI-H441, for which the relative viability with Gemcitabine + Alpelisib (first compound 0.001 µM) came out at 0.602; with Gemcitabine + Alpelisib (first compound 0.003162 µM) it was 0.327; with Gemcitabine + Alpelisib (first compound 0.01 µM), 0.138; with Gemcitabine + Alpelisib (first compound 0.03162 µM), 0.149; with Gemcitabine + Alpelisib (first compound 0.1 µM), 0.12; in the assay with Gemcitabine + Pemetrexed (first compound 0.001 µM), 0.277. Further, the relative viability in the assay with Gemcitabine + Pemetrexed (first compound 0.003162 µM) was found to be 0.282; in the assay with Gemcitabine + Pemetrexed (first compound 0.01 µM), 0.217; with Gemcitabine + Pemetrexed (first compound 0.03162 µM), 0.16; in the assay with Gemcitabine + Pemetrexed (first compound 0.1 µM), 0.115; with Gemcitabine + Foretinib (first compound 0.001 µM), 1.2; in the assay with Gemcitabine + Foretinib (first compound 0.003162 µM) it was 0.711. Further, the relative viability amounted to 0.421 with Gemcitabine + Foretinib (first compound 0.01 µM); 0.21 with Gemcitabine + Foretinib (first compound 0.03162 µM); 0.211 with Gemcitabine + Foretinib (first compound 0.1 µM); 0.651 in the assay with Gemcitabine + Olaparib (first compound 0.001 µM); 0.241 in the assay with Gemcitabine + Olaparib (first compound 0.003162 µM); 0.187 with Gemcitabine + Olaparib (first compound 0.01 µM). Also, the figures for the relative viability with Gemcitabine + Olaparib (first compound 0.03162 µM) and with Gemcitabine + Olaparib (first compound 0.1 µM) were 0.161 and 0.116, respectively.
For SK-LU-1, the relative viability with Gemcitabine + Alpelisib (first compound 0.001 µM) stood at 0.745; with Gemcitabine + Alpelisib (first compound 0.003162 µM) it was 0.337; with Gemcitabine + Alpelisib (first compound 0.01 µM) it was 0.246; with Gemcitabine + Alpelisib (first compound 0.03162 µM) it was 0.224; with Gemcitabine + Alpelisib (first compound 0.1 µM), 0.192; in the assay with Gemcitabine + Pemetrexed (first compound 0.001 µM), 1.01. Moreover, the relative viability with Gemcitabine + Pemetrexed (first compound 0.003162 µM) was 0.434; in the assay with Gemcitabine + Pemetrexed (first compound 0.01 µM), 0.252; with Gemcitabine + Pemetrexed (first compound 0.03162 µM), 0.2; with Gemcitabine + Pemetrexed (first compound 0.1 µM), 0.237; with Gemcitabine + Foretinib (first compound 0.001 µM), 0.728; with Gemcitabine + Foretinib (first compound 0.003162 µM), 0.441. Also, the relative viability with Gemcitabine + Foretinib (first compound 0.01 µM) was 0.217; with Gemcitabine + Foretinib (first compound 0.03162 µM), 0.168; in the assay with Gemcitabine + Foretinib (first compound 0.1 µM), 0.164; with Gemcitabine + Olaparib (first compound 0.001 µM) it was 0.431; with Gemcitabine + Olaparib (first compound 0.003162 µM), 0.188; with Gemcitabine + Olaparib (first compound 0.01 µM), 0.181. Moreover, the relative viability in the assay with Gemcitabine + Olaparib (first compound 0.03162 µM) turned out to be 0.183; with Gemcitabine + Olaparib (first compound 0.1 µM) it was 0.168.

Values taken from the supplement of paper PMC10307832.
